{
  "source": "paper PMC10269165",
  "about": "(Antimicrobial Agents and Chemotherapy, 2023)",
  "assay": "WST-1 cytotoxicity assay in HCT-8 cells",
  "assay_type": "cell-based, human",
  "conditions": "human, HCT-8 cells (human ileocecal colorectal adenocarcinoma), read-out: Mean IC50 ± SEM, Cytotoxicity",
  "method": "Compounds were tested for cytotoxicity in human ileocecal colorectal adenocarcinoma cells (HCT-8) (ATCC CCL-244; RRID:CVCL_2478) by using the cell proliferation reagent WST-1 (Roche) according to the manufacturer’s protocol. The WST-1 assay is a quantitative colorimetric assay for measurement of metabolically active cells. This assay is based on the reduction of the tetrazolium salt (WST-1) by viable cells. About 5 × 10^4 HCT-8 cells were seeded per well in 96-well plates and grown overnight in 200 μL of RPMI 1640 medium (without phenol red; Gibco) supplemented with 2.5 g/L of glucose, 1 mM sodium pyruvate, 1.5 g/L of sodium bicarbonate, 10% heat-inactivated FBS (Gibco), and 1× antibiotic-antimycotic (Gibco) at 37°C with 5% CO2 in a humidified incubator. Upon reaching 80 to 90% confluence, cells were treated with various concentrations of the test compounds for 24 h. Control wells received equivalent volumes of DMSO used in the reconstituted compounds. After 24 h of culture, 10 μL of the WST-1 reagent was added to each well, and the plates were incubated in the dark for 1 h at 37°C with 5% CO2. The plates were well agitated, and 150 μL of the medium from each well was transferred to a new clear flat-bottomed black 96-well plate (Corning). The absorbance was read at a test wavelength of 440 nm and a reference wavelength of 690 nm using a multimode microplate reader (Spectra Max iD3; Molecular Devices, USA). All of the reactions were prepared in triplicate. The dose-response curves were generated by nonlinear regression analysis with GraphPad PRISM software using control-normalized data to determine the half-maximal cytotoxicity (IC50) concentrations.",
  "data": [
    {"smiles": "O=c1c(O)cccc2cc(O)c(O)c(O)c12", "note": "[NSC35676, purpurogallin]", "values": [
      {"measurement": "IC50 at 24 h", "result": "566 ± 55.9", "unit": "µM"}
    ]},
    {"smiles": "CO[C@@]12[C@H](COC(N)=O)C3=C(C(=O)C(C)=C(N)C3=O)N1C[C@H]1[C@@H]2N1C", "note": "(some centres unmarked) [NSC56410]", "values": [
      {"measurement": "IC50 at 24 h", "result": "188 ± 4.19", "unit": "µM"}
    ]}
  ]
}
